Reference: PMC7822874, “Chemoprotective antimalarials identified through quantitative high-throughput screening of Plasmodium blood and liver stage parasites” (Scientific Reports, 2021)

System: Plasmodium falciparum Dd2 asexual blood stage parasites
Assay: microbe, parasite or virus in culture
Set-up: species or system Plasmodium falciparum Dd2 in human erythrocytes; single determination (one 11-point concentration-response curve)
Settings: Plasmodium falciparum, DD2, Erythrocyte, 72 h; read-out: AC50

CC1=C[C@@H](CNC2CC2)[C@H](C(C)C)C[C@H]1Cc1nnc(-c2ccc(C)cc2)o1 [NCGC00394380-01] was tested, and the AC50 was 17.2 µM.
With CC1=C[C@@H](CN2CCOCC2)[C@H](C(C)C)C[C@H]1Cc1nnc(-c2ccc([N+](=O)[O-])cc2)o1 [NCGC00394583-01] the AC50 was 9.44 µM.
In the case of CC1=C[C@@H](CNC(=O)COc2ccccc2)[C@H](C(C)C)C[C@H]1Cc1nnc(-c2cncn2C)o1 [NCGC00394594-01], the AC50 is reported as 13.3 µM.
For Cc1nn(-c2ccc(C(C)(C)C)cc2)c(C)c1[C@@H]1C=C[C@@H](NC(=O)c2ccco2)C1 [NCGC00394638-01], the AC50 was 12.2 µM.
c1cc(-c2noc([C@@H]3Cc4[nH]cnc4CN3CC3CCCCC3)n2)ccn1 [NCGC00394653-01] was tested, and the AC50 was 21.7 µM.
For COc1ccc(-c2nnc(C[C@@H]3C[C@@H](C(C)C)[C@H](CN4CCC(O)CC4)C=C3C)o2)cc1 [NCGC00394772-01], the AC50 was 9.44 µM.
For CC1=C[C@@H](CN2CCC[C@H]2CO)[C@H](C(C)C)C[C@H]1Cc1nnc(-c2ccc(N(C)C)cc2)o1 [NCGC00394794-01], the AC50 was 13.3 µM.
Molecule COCCOc1cc(-c2noc([C@@H]3CCCN3CC3CC3)n2)ccn1 [NCGC00394865-01] has an AC50 of 15.3 µM.
Work on COCCOc1ccnc(-c2noc([C@@H]3CCCN3Cc3cn(C)c4ccccc34)n2)c1 [NCGC00394869-01] yielded an AC50 of 19.3 µM.
CC(C)(C)c1c[nH]c([C@@H]2COCCN2Cc2ccccc2O)n1 [NCGC00395090-01] gave an AC50 of 13.7 µM.
C[C@]1(CO)[C@H]2Cc3sc(NC(=O)c4cccc(F)c4)nc3[C@@H](CC(=O)N3CCOCC3)[C@]2(C)CC[C@H]1O [NCGC00395198-01] showed an AC50 of 8.41 µM.
C#C[C@H]1C[N@@]2CC[C@H]1C[C@@H]2CNCc1cccc(Cl)c1 [NCGC00395254-01] gave an AC50 of 4.85 µM.
Molecule Cc1ccc2c(n1)N(C)[C@H](CO)CCN(Cc1ccc(C(F)(F)F)cc1)C2 [NCGC00395284-01] has an AC50 of 15.3 µM.
For C[C@H]1[C@@H]2[C@@H](O)C([C@H](C)C(=O)NCc3cc(F)cc(F)c3)CC[C@@]2(C)CC[C@@H]1NC(=O)c1cncnc1 (some centres unmarked) [NCGC00395377-01], the AC50 was 4.22 µM.
Work on COc1ccccc1CNC(=O)[C@@H](C)C1CC[C@@]2(C)CC[C@H](NC(=O)c3cncnc3)[C@@H](C)[C@@H]2[C@H]1O (some centres unmarked) [NCGC00395379-01] yielded an AC50 of 2.37 µM.
Work on CC1=C[C@@H](CN2CCCC2)[C@H](C(C)C)C[C@H]1Cc1nnc(-c2ccc([N+](=O)[O-])cc2)o1 [NCGC00395425-01] yielded an AC50 of 3.85 µM.
Molecule COc1cccc(NC(=O)N[C@H]2C[C@@H](c3nc(C)no3)N(C)C2)c1 [NCGC00395440-01] has an AC50 of 17.2 µM.
Molecule CN(C)Cc1cc(C[C@@H]2C[C@H](NCc3ccccc3O)C2(C)C)no1 [NCGC00395458-01] has an AC50 of 17.2 µM.
Molecule O[C@H]1[C@H](NCC2CCCC2)[C@@H](c2ccccc2)C[C@H]1O [NCGC00395463-01] has an AC50 of 6.11 µM.
With C=CCOC(=O)Nc1nc2c(s1)C[C@@H]1[C@](C)(CO)[C@H](O)CC[C@@]1(C)[C@@H]2CC(=O)NC1CCCCC1 [NCGC00395650-01] the AC50 was 3.76 µM.
O=C(Nc1ccc2n(c1=O)C[C@H]1C[C@@H]2CN(Cc2ccc(F)cc2)C1)c1cccs1 [NCGC00395674-01] gave an AC50 of 15.3 µM.
For CC1=C[C@@H](CN2CCN(c3ncccn3)CC2)[C@H](C(C)C)C[C@H]1Cc1nnc(COc2ccc(F)cc2)o1 [NCGC00395820-01], the AC50 was 0.75 µM.
CC(=O)NCCNC[C@@H]1C=C(C)[C@H](Cc2nnc(-c3ccccc3)o2)C[C@H]1C(C)C [NCGC00395892-01] gave an AC50 of 17.2 µM.
Fc1ccccc1CN1CCC[C@H]1c1nc(-c2ccnc(N3CCOCC3)c2)no1 [NCGC00395913-01] showed an AC50 of 15.3 µM.
NC(=O)c1cccc2nc([C@H]3CCN(Cc4ccccn4)C3)[nH]c12 [NCGC00396190-01] was tested, and the AC50 was 1.53 µM.
For COc1ccc(NC(=O)O[C@@H]2CC[C@]3(C)C(CC[C@@H](O)[C@H]3CC(=O)NCc3ccccc3OC)[C@]2(C)CO)cc1 (some centres unmarked) [NCGC00398535-01], the AC50 was 6.68 µM.
Work on COC(=O)[C@H](Cc1ccc(OC)cc1)NC(=O)[C@H]1CN(C(=O)c2ccc(N(C)C)cc2)CCN1C(=O)C1CCCCC1 [NCGC00398660-01] yielded an AC50 of 0.668 µM.
COC(=O)[C@H](Cc1ccc(OC)cc1)NC(=O)[C@H]1CN(C(=O)c2ccc(N(C)C)cc2)CCN1C(=O)c1cccs1 [NCGC00398661-01] showed an AC50 of 0.188 µM.
C#C[C@H]1C[N@@]2CC[C@H]1C[C@@H]2CNCc1ccc(F)c(F)c1 [NCGC00399053-01] gave an AC50 of 13.7 µM.
Work on Cn1nc(C2CCCCC2)cc1[C@H]1CN2CC[C@H]1C[C@@H]2CNC(=O)c1cccs1 [NCGC00399662-01] yielded an AC50 of 13.7 µM.
For Cn1nc(C2CCCCC2)cc1[C@H]1CN2CC[C@H]1C[C@@H]2CNC(=O)COc1ccccc1 [NCGC00399666-01], the AC50 was 15 µM.
CC(C)NC(=O)OC[C@H]1C[C@@H]2CCN1C[C@@H]2c1cc(-c2ccc(F)cc2)nn1C [NCGC00399718-01] showed an AC50 of 13.7 µM.
With COc1ccc(-c2cc([C@H]3CN4CC[C@H]3C[C@@H]4CNC(=O)NC3CCCCC3)n(C)n2)cc1 [NCGC00399776-01] the AC50 was 1.88 µM.
COc1ccc([S+](=O)([O-])NC[C@H]2C[C@@H]3CC[N@]2C[C@@H]3CN(C)Cc2ccccc2)cc1 [NCGC00400093-01] was tested, and the AC50 was 4.73 µM.
With CCC(CC)c1cc([C@H]2CN3CC[C@H]2C[C@@H]3CNC(=O)c2ccc(C)cc2)nc(-c2ccncc2)n1 [NCGC00400216-01] the AC50 was 10.6 µM.
CCC(CC)c1cc([C@H]2CN3CC[C@H]2C[C@@H]3CNC(=O)c2ccccc2)nc(-c2ccncc2)n1 [NCGC00400223-01] showed an AC50 of 10.6 µM.
CCC(CC)c1cc([C@H]2CN3CC[C@H]2C[C@@H]3CNC(=O)NCc2ccccc2)nc(-c2ccncc2)n1 [NCGC00400244-01] showed an AC50 of 4.22 µM.
Work on O=C(C[C@@H]1CCNC[C@@H]1Cc1cc(CSc2ccccc2)on1)N1CCN(c2ccccc2)CC1 [NCGC00400854-01] yielded an AC50 of 8.41 µM.
Oc1ccccc1CN[C@H]1[C@H](O)[C@@H](N2CCC(Cc3ccccc3)CC2)[C@@H]2OC[C@H]1O2 [NCGC00400924-01] was tested, and the AC50 was 3.44 µM.
Molecule COc1ccc(CNC[C@H]2O[C@H](Cc3cc(-c4ccc(OC)cc4)on3)CC[C@@H]2O)cc1 [NCGC00401026-01] has an AC50 of 10.6 µM.
Molecule COc1ccc(CNC[C@H]2O[C@H](Cc3cc(-c4ccccc4)on3)CC[C@@H]2O)cc1 [NCGC00401044-01] has an AC50 of 3.85 µM.
Molecule CN(Cc1ccccc1)C(=O)[C@H]1O[C@H](CCN2CCN(c3ccc(F)cc3)CC2)CC[C@@H]1O [NCGC00401502-01] has an AC50 of 5.96 µM.
Cc1nc(-c2ccco2)cc([C@H]2CN3CC[C@H]2C[C@@H]3CNCc2ccccc2)n1 [NCGC00401513-01] showed an AC50 of 4.33 µM.
COc1ccc2nc(C[C@@H]3C[C@@H](C(C)C)[C@H](CNCc4cccnc4)C=C3C)[nH]c2n1 [NCGC00401578-01] gave an AC50 of 19.3 µM.
Molecule COc1ccc(C(=O)N[C@@H]2CN(Cc3cccc(OC)c3)CCC[C@H]2O)cc1 [NCGC00401653-01] has an AC50 of 10.9 µM.
Molecule COC(=O)[C@@H]1Cc2ncn(Cc3ccc(OC)cc3)c2CN1[S+](=O)([O-])Cc1ccccc1 [NCGC00401681-01] has an AC50 of 15 µM.
With COC(=O)[C@@H]1Cc2ncn(Cc3ccc(OC)cc3)c2CN1[S+](C)(=O)[O-] [NCGC00401682-01] the AC50 was 19.3 µM.
Molecule CC1=C[C@@H](CNCCN(C)C)[C@H](C(C)C)C[C@H]1Cc1nnc(C(C)(C)C)o1 [NCGC00401821-01] has an AC50 of 15.3 µM.
Work on O=C1CO[C@H]2CCN(Cc3ccc4c(c3)CCO4)CC[C@@H]2N1Cc1ccccc1 [NCGC00409937-01] yielded an AC50 of 17.2 µM.
Work on COc1ccc2cc1Nc1ccc(cc1)C[C@H](NCc1cccc(C(=O)O)c1)C(=O)N(C)[C@H](C(=O)Nc1ccccc1OCc1ccccc1)C2 [NCGC00410264-01] yielded an AC50 of 4.73 µM.
Work on COc1ccc2cc1Nc1ccc(cc1)C[C@H](NC(=O)c1cc3ccccc3n1C)C(=O)N(C)[C@H](C(=O)NCCC(C)C)C2 [NCGC00410275-01] yielded an AC50 of 10.6 µM.
Work on COc1ccc2cc1Nc1ccc(cc1)C[C@H](NCc1ccc(C)o1)C(=O)N(C)[C@@H](C(=O)NCc1ccccc1)C2 [NCGC00410280-01] yielded an AC50 of 5.31 µM.
Work on COc1ccc2cc1Nc1ccc(cc1)C[C@H](NC(=O)c1cccnc1)C(=O)N(C)[C@@H](C(=O)NCCOc1ccccc1)C2 [NCGC00410281-01] yielded an AC50 of 4.22 µM.
COc1ccc2cc1Nc1ccc(cc1)C[C@H](NC(=O)Cc1cccc(Cl)c1)C(=O)N(C)[C@H](C(=O)NCCOc1ccccc1)C2 [NCGC00410283-01] showed an AC50 of 7.5 µM.
With COc1ccc2cc1Nc1ccc(cc1)C[C@H](NCc1ccc(C)o1)C(=O)N(C)[C@H](C(=O)NCCC(C)C)C2 [NCGC00410286-01] the AC50 was 5.96 µM.
COc1ccc2cc1Nc1ccc(cc1)C[C@H](NCc1ccc3c(c1)CCO3)C(=O)N(C)[C@H](C(=O)NCCC(C)C)C2 [NCGC00410296-01] gave an AC50 of 3.35 µM.
Molecule COc1ccc2cc1Nc1ccc(cc1)C[C@H](NC(=O)c1ccc(Oc3ccccc3)cc1)C(=O)N(C)[C@@H](C(=O)Nc1ccccc1)C2 [NCGC00410310-01] has an AC50 of 2.11 µM.
For c1ccc(Nc2cc3c(cn2)CN(Cc2ccsc2)CCN3)cc1 [NCGC00411091-01], the AC50 was 13.7 µM.
For CN(C)c1cccc(Nc2cc3c(cn2)CN(Cc2ccccc2)CCN3)c1 [NCGC00411230-01], the AC50 was 13.7 µM.
Cc1noc2c(NC3CCN(C)CC3)cc(-c3cccc(C(F)(F)F)c3)nc12 [NCGC00411487-01] was tested, and the AC50 was 13.7 µM.
Work on Oc1ccccc1-c1cc(C2=CCOCC2)c2cncn2c1 [NCGC00412161-01] yielded an AC50 of 9.68 µM.
In the case of COc1ccc(-c2cc(-c3ccc(N4CCOCC4)nc3)cn3cncc23)cc1 [NCGC00412184-01], the AC50 is reported as 7.69 µM.
In the case of COc1ccc(-c2cc(-c3cccc(OC)c3OC)cn3cncc23)cc1 [NCGC00412191-01], the AC50 is reported as 6.85 µM.
Work on COc1ccc(-c2cc(-c3cccc(NC(C)=O)c3)cn3cncc23)cn1 [NCGC00412201-01] yielded an AC50 of 21.7 µM.
COc1ccc(NC(=O)Cc2c[nH]c3ncc(-c4cnn(C)c4)cc23)cn1 [NCGC00412250-01] showed an AC50 of 12.2 µM.
For C[S+](=O)([O-])c1cccc(-c2cnc3[nH]cc(CC(=O)NCc4cccnc4)c3c2)c1 [NCGC00412364-01], the AC50 was 9.68 µM.
COc1ccc(-c2cnc3[nH]cc(CC(=O)NCc4cccnc4)c3c2)cn1 [NCGC00412433-01] gave an AC50 of 6.85 µM.
Molecule COc1ccc(-c2cnc3[nH]cc(CC(=O)NCc4cccnc4)c3c2)cc1OC [NCGC00412448-01] has an AC50 of 1.53 µM.
Work on COc1ccccc1Nc1cnc2ccc(-c3ccc(F)cc3)nn12 [NCGC00412490-01] yielded an AC50 of 6.85 µM.
COc1ccc(-c2ccc3ncc(Nc4cccc(C(F)(F)F)c4)n3n2)cn1 [NCGC00412495-01] was tested, and the AC50 was 12.2 µM.
In the case of c1ccc(-c2ccc3ncc(Nc4cccnc4)n3n2)cc1 [NCGC00412518-01], the AC50 is reported as 4.85 µM.
